Values of other authors in patent US20100029551A1, “Treatment Of Inflammatory Lung Conditions With Aerosolized Macrolide Antibiotics” (priority 2008, published 2010).

CO[C@]1(C)C[C@@H](C)C(=O)[C@H](C)[C@@H](O)[C@](C)(O)[C@@H](C(C)O)OC(=O)[C@H](C)[C@@H](O[C@H]2C[C@@](C)(OC)[C@@H](O)[C@H](C)O2)[C@H](C)[C@H]1O[C@@H]1O[C@H](C)C[C@H](N(C)C)[C@H]1O (some centres unmarked) [14-hydroxy clarithromycin]
Activity relative to clarithromycin (first-pass metabolite of clarithromycin): approximately twice as active as clarithromycin
Plasma half-life relative to clarithromycin (plasma): significantly longer plasma half-life than clarithromycin
